Laboratory results from ChEMBL document CHEMBL1208786, “1-Methyl-1H-pyrrole-2-carbonitrile containing tetrahydronaphthalene derivatives as non-steroidal progesterone receptor antagonists” (Bioorg Med Chem Lett, 2010).
Active and inactive are the calls of the source. The rule behind the calls is not given here.

Assays:
[1] = target: T1, Progesterone receptor (Homo sapiens, UniProt P06401); experiment: Antagonist activity at progesterone receptor in human T47D cells assessed as inhibition of progesterone-induced alkaline phosphatase activity; type: functional, cell-based
T1 sequence (P06401 whole entry): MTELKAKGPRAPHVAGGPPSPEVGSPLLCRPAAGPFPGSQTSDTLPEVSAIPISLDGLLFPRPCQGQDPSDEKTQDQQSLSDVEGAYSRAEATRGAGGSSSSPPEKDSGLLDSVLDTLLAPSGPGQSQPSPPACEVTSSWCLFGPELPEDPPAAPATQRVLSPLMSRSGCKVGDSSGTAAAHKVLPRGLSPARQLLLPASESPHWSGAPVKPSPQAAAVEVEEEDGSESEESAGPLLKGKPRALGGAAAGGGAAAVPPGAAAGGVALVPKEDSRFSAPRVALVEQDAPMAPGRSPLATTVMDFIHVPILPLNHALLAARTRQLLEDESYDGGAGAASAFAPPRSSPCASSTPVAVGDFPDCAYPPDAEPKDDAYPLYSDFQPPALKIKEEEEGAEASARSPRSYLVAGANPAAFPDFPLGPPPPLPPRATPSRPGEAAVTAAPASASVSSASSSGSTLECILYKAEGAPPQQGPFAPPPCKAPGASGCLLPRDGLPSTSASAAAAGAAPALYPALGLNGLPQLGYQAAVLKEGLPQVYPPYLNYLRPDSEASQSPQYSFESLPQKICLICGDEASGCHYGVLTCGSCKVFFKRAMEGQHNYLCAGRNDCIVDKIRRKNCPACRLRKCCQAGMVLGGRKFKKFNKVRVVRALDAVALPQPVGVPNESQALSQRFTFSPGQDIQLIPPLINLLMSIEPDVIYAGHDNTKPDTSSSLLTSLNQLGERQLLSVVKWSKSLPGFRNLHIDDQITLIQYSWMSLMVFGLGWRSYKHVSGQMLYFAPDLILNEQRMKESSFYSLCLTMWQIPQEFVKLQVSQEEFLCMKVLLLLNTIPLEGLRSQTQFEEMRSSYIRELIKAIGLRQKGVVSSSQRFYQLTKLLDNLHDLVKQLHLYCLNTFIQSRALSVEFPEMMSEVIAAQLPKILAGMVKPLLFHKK

[2] = target: T2, Estrogen receptor (Homo sapiens) (UniProt P03372); experiment: Antagonist activity at estrogen receptor ligand binding domain up to 10 uM by two hybrid assay
T2 sequence (whole entry): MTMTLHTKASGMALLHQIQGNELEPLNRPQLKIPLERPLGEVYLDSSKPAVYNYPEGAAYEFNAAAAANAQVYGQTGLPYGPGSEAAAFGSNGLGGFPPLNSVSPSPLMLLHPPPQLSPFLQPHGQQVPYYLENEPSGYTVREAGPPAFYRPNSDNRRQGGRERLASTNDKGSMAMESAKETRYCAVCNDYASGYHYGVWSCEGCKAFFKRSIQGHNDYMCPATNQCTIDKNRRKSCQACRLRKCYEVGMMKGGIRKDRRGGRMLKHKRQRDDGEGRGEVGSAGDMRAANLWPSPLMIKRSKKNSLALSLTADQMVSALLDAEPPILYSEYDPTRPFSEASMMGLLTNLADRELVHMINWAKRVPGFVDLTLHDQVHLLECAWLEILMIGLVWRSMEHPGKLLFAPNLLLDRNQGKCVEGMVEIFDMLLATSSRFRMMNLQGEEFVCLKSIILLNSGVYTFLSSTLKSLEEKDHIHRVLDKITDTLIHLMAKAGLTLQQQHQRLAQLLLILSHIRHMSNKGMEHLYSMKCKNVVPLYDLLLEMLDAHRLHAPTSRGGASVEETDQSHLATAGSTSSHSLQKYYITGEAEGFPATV

[3] = target: T3, Androgen receptor (Homo sapiens, UniProt P10275); experiment: Antagonist activity at androgen receptor ligand binding domain by two hybrid assay
T3 sequence (P10275 whole entry): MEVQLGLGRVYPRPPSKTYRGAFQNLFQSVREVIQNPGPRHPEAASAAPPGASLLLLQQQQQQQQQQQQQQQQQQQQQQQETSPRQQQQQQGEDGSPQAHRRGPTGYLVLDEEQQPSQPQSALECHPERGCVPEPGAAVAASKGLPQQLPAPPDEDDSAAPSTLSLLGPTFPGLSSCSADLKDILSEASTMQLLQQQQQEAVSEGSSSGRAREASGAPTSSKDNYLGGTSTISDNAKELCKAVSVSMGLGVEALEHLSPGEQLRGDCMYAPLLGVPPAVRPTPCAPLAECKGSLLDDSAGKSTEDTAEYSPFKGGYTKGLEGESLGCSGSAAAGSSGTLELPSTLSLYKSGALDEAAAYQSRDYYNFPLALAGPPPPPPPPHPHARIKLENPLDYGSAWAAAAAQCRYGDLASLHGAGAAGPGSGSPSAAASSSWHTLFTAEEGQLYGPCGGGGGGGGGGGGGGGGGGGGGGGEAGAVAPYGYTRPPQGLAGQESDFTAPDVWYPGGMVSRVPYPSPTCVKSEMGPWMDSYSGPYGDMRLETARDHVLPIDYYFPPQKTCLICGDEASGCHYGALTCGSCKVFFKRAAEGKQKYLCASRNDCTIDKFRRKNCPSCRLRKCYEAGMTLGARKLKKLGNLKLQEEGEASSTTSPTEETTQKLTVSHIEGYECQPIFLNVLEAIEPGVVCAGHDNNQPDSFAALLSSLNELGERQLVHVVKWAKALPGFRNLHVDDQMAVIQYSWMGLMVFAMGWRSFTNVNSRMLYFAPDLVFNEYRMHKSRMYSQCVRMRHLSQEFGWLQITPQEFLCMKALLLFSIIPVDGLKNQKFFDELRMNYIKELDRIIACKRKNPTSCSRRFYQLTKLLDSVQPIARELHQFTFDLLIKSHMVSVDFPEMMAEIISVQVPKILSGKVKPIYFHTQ

[4] = target: T4, Glucocorticoid receptor (Homo sapiens) (UniProt P04150); experiment: Antagonist activity at glucocorticoid receptor ligand binding domain up to 10 uM by two hybrid assay
T4 sequence (whole entry): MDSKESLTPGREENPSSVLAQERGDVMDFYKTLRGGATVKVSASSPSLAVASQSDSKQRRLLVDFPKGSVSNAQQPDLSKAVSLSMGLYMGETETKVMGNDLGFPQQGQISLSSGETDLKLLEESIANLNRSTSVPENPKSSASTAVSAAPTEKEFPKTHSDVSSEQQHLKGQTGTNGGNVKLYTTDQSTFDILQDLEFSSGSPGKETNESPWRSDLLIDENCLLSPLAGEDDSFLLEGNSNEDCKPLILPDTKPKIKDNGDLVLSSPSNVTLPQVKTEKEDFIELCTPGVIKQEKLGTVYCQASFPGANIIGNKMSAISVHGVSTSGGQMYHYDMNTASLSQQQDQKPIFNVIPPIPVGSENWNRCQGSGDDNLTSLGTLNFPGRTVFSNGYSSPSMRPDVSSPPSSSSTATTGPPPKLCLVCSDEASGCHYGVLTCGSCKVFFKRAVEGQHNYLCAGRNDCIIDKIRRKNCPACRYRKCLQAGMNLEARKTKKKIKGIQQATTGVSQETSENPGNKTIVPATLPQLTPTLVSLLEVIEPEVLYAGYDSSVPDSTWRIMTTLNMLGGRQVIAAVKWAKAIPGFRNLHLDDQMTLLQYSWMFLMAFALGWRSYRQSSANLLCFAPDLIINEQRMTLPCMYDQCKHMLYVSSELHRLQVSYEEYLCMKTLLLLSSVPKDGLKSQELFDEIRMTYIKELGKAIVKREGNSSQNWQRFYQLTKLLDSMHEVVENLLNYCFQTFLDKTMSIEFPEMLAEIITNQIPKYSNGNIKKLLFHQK

[5] = target: T5, Mineralocorticoid receptor (Homo sapiens) (UniProt P08235); experiment: Antagonist activity at mineralocorticoid receptor ligand binding domain up to 10 uM by two hybrid assay
T5 sequence (whole entry): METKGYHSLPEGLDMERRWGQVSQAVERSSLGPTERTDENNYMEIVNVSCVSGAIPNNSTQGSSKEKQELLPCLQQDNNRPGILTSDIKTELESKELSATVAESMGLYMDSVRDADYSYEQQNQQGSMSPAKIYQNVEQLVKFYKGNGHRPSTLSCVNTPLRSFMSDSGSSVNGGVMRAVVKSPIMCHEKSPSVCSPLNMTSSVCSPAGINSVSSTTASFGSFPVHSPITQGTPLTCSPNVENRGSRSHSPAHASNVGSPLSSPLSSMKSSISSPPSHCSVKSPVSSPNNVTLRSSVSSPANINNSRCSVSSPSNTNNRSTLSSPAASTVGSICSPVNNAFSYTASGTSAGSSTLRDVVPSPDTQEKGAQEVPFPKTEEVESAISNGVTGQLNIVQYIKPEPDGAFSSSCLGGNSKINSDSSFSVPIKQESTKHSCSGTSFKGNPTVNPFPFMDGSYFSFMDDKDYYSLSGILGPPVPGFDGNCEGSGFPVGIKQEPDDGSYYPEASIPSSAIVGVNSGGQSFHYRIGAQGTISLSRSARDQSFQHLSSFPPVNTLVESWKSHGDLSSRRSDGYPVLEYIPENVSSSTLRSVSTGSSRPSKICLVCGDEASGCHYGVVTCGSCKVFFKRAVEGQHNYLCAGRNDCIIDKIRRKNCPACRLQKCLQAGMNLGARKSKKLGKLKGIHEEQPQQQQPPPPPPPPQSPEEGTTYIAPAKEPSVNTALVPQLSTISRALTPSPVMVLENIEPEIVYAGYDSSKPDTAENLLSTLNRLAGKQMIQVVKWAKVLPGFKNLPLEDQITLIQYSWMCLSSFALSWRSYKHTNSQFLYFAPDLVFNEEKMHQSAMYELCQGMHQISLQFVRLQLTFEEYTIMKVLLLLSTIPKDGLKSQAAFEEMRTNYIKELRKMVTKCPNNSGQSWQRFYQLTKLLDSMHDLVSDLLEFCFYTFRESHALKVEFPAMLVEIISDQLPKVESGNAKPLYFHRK

Row | SMILES | IC50 [1] | further results
1 | Cn1c(C#N)ccc1-c1ccc2c(c1)CCCC2=O | 0.028 µM | –
2 | CC(=O)c1ccc(-c2ccc(C#N)n2C)cc1 | 0.8 µM | –
3 | Cn1c(C#N)ccc1-c1ccc(C(=O)C(C)(C)C)cc1 | 0.003 µM | inhibition [2]: inactive; IC50 [3]: 0.1 µM; inhibition [4]: inactive; inhibition [5]: inactive
4 | Cn1c(C#N)ccc1-c1ccc2c(c1)CCCC2(C)O (stereo not drawn) | 0.006 µM | –
5 | Cn1c(C#N)ccc1-c1ccc2c(c1)CCC/C2=N/O | 0.033 µM | –
6 | CCC(O)c1ccc(-c2ccc(C#N)n2C)cc1 (stereo not drawn) | 0.027 µM | –
7 | Cn1c(C#N)ccc1-c1ccc(C(O)c2ccccc2)cc1 (stereo not drawn) | 0.118 µM | –
8 | C/C(=N/O)c1ccc(-c2ccc(C#N)n2C)cc1 | 0.108 µM | –
9 | Cn1c(C#N)ccc1-c1ccc2c(c1)CCCC2O (stereo not drawn) | 0.007 µM | –
10 | CC/C(=N/O)c1ccc(-c2ccc(C#N)n2C)cc1 | 0.017 µM | –
11 | CC(O)c1ccc(-c2ccc(C#N)n2C)cc1 (stereo not drawn) | 0.036 µM | –
12 | Cn1c(C#N)ccc1-c1ccc2c(c1)CCCC2(O)c1ccccc1 (stereo not drawn) | 0.035 µM | –
13 | CC#CC1(O)CCCc2cc(-c3ccc(C#N)n3C)ccc21 (stereo not drawn) | 0.01 µM | –
14 | Cn1c(C#N)ccc1-c1ccc(/C(=N\O)C(C)(C)C)cc1 | 0.003 µM | inhibition [2]: inactive; IC50 [3]: 0.165 µM; inhibition [4]: inactive; inhibition [5]: inactive
15 | Cn1c(C#N)ccc1-c1ccc(C(O)c2cccs2)cc1 (stereo not drawn) | 0.047 µM | –
